Experimental data from US20140343017A1, “PYRROLE COMPOUND” (Kabushiki Kaisha Yakult Honsha, priority 2012, published 2014).

Tested on: PTX-resistant H460/PV2-7 cells
Test: Inhibitory effect on growth of PTX-resistant tumor cell line highly expressing TUBB3 (in vitro)
Format: cell-based, human
Conditions: for Resistance rate: H460/PV2-7 versus parent line H460; for IC50: Homo sapiens, NCI-H460, H460/PV2-7 cells, 96 hours culture, WST-8

SMILES: CC(=O)O[C@@]12CO[C@@H]1C[C@H](O)[C@@]1(C)C(=O)[C@H](O)C3=C(C)[C@@H](OC(=O)[C@H](O)[C@@H](NC(=O)OC(C)(C)C)c4ccccc4)C[C@@](O)([C@@H](OC(=O)c4ccccc4)[C@H]21)C3(C)C [Docetaxel, docetaxel]
- Resistance rate: 2.6
- IC50: 4 nM

SMILES: CO[C@H]1C(=O)[C@]2(C)[C@@H](OC)C[C@H]3OC[C@@]3(OC(C)=O)[C@H]2[C@H](OC(=O)c2ccccc2)[C@]2(O)C[C@H](OC(=O)[C@H](O)[C@@H](NC(=O)OC(C)(C)C)c3ccccc3)C(C)=C1C2(C)C [Cabazitaxel, cabazitaxel]
- Resistance rate: 3.2
- IC50: 4 nM

SMILES: CC(=O)O[C@H]1C(=O)[C@@]2(C)[C@H]([C@H](OC(=O)c3ccccc3)[C@]3(O)C[C@H](OC(=O)[C@H](O)[C@@H](NC(=O)c4ccccc4)c4ccccc4)C(C)=C1C3(C)C)[C@]1(OC(C)=O)CO[C@@H]1C[C@@H]2O [Paclitaxel, paclitaxel, reference compound]
- Resistance rate: 4.6
- Resistance rate (listed as PTX): approximately 4.6
- IC50: 16.5 nM

SMILES: Cc1c(-c2nnn(CCO)n2)[nH]c(CO)c1C(=O)c1cccc(Br)c1 [Compound 121, (3-bromophenyl)(5-(2-(2-hydroxyethyl)-2H-tetrazol-5-yl)-2-(hydroxymethyl)-4-methyl-1H-pyrrol-3-yl)methanone]
- Resistance rate: 0.27
- IC50: 20.6 nM

SMILES: Cc1c(-c2nnn(CCO)n2)[nH]c(C(C)O)c1C(=O)c1cccc(Br)c1 (stereo not shown) [Compound 123, (3-bromophenyl)(2-(1-hydroxyethyl)-5-(2-(2-hydroxyethyl)-2H-tetrazol-5-yl)-4-methyl-1H-pyrrol-3-yl)methanone]
- Resistance rate: 0.31
- IC50: 21 nM

SMILES: CNC(=O)c1[nH]c(-c2nnn(CCO)n2)c(C)c1C(=O)c1cccc(Br)c1 [Compound 142, 3-(3-bromobenzoyl)-5-(2-(2-hydroxyethyl)-2H-tetrazol-5-yl)-N,4-dimethyl-1H-pyrrole-2-carboxamide]
- Resistance rate: 0.29
- IC50: 108 nM
